Reference: the kinase profiling compilation of Christmann-Franck et al. (2016)

How the values were obtained:
Experiment in all cases: radiometric filter-binding kinase assay, Kinase HotSpot
Conditions in all cases: compound 0.5 µM; ATP 10 µM
BRSK1 (human) = BRSK1 (human) (UniProt Q8TDC3)
CAMK2A (human) = CAMK2A (human) (UniProt Q9UQM7)
CAMK2B (human) = CAMK2B (human) (UniProt Q13554)
CDK3 CCNE1 (human) = CDK3 CCNE1 (human) (UniProt Q00526+P24864)
CLK4 (human) = CLK4 (human) (UniProt Q9HAZ1)
CSNK1A1 (human) = CSNK1A1 (human) (UniProt P48729)
CSNK1E (human) = CSNK1E (human) (UniProt P49674)
DMPK (human) = DMPK (human) (UniProt Q09013)
DYRK1B (human) = DYRK1B (human) (UniProt Q9Y463)
ERBB2 (human) = ERBB2 (human) (UniProt P04626)
FLT1 (human) = FLT1 (human) (UniProt P17948)
Sequence of FLT1 (human) (P17948 whole entry, looked up): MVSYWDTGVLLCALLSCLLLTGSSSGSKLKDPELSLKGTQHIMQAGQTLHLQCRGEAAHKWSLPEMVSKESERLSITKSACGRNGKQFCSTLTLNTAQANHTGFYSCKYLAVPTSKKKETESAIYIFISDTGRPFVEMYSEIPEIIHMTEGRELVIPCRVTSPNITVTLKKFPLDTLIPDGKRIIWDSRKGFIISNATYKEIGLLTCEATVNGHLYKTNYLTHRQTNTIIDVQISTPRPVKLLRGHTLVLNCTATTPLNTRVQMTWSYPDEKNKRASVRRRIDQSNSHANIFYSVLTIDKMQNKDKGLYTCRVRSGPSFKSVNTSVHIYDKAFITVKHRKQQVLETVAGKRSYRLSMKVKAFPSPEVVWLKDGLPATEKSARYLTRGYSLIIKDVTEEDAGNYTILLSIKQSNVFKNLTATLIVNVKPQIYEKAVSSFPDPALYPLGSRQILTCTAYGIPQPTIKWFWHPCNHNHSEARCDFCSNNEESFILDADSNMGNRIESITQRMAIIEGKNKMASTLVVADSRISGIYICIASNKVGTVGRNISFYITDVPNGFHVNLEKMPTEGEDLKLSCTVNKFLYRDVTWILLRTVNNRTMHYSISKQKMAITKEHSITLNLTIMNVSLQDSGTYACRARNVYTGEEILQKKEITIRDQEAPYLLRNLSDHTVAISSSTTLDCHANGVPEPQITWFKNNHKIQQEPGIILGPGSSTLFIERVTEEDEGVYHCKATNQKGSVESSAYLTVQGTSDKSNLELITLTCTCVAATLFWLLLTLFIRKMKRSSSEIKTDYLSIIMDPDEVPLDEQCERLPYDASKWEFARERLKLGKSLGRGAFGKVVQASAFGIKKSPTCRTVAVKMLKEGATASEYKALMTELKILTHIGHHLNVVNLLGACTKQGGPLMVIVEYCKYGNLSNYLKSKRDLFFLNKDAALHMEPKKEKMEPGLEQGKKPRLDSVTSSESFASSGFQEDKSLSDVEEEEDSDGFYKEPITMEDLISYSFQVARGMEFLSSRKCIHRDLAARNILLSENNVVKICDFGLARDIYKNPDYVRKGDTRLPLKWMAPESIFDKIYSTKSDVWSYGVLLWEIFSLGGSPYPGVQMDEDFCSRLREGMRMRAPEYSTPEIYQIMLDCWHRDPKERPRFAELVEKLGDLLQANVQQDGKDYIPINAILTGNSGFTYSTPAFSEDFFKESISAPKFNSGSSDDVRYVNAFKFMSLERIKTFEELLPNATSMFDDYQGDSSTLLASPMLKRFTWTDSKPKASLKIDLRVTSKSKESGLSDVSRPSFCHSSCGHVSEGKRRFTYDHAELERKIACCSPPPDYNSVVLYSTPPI

GRK5 (human) = GRK5 (human) (UniProt P34947)
ITK (human) = ITK (human) (UniProt Q08881)
JAK2 JH1 JH2 (human) = JAK2 JH1 JH2 (human) (UniProt O60674)
KDR (human) = KDR (human) (UniProt P35968)
MAP3K8 (human) = MAP3K8 (human) (UniProt P41279)
MAP4K5 (human) = MAP4K5 (human) (UniProt Q9Y4K4)
MAPK1 (human) = MAPK1 (human) (UniProt P28482)
MST4 (human) = MST4 (human) (UniProt Q9P289)
MUSK (human) = MUSK (human) (UniProt O15146)
NEK2 (human) = NEK2 (human) (UniProt P51955)
NUAK1 (human) = NUAK1 (human) (UniProt O60285)
OXSR1 (human) = OXSR1 (human) (UniProt O95747)
PAK6 (human) = PAK6 (human) (UniProt Q9NQU5)
PDPK1 (human) = PDPK1 (human) (UniProt O15530)
PIM1 (human) = PIM1 (human) (UniProt P11309)
PLK3 (human) = PLK3 (human) (UniProt Q9H4B4)
Sequence of PLK3 (human) (Q9H4B4 whole entry, looked up): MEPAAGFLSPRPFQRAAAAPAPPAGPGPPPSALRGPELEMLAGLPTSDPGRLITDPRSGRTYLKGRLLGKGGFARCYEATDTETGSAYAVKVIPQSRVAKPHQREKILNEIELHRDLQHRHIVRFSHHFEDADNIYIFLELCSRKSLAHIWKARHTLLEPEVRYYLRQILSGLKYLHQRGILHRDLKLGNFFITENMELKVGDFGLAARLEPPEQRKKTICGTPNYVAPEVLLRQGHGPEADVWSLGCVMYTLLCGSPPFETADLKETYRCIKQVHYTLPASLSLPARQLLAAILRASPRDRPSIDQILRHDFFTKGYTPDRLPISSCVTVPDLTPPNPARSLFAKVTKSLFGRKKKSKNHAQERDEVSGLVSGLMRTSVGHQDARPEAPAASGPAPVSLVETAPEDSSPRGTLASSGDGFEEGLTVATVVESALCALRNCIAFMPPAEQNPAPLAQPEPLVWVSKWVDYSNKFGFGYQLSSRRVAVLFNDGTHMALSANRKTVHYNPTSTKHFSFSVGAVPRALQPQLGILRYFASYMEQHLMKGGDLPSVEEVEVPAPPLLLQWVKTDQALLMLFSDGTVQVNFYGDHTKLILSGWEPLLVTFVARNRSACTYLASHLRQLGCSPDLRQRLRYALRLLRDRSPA

PRKCB2 (human) = PRKCB2 (human) (UniProt P05771)
PRKCZ (human) = PRKCZ (human) (UniProt Q05513)
Sequence of PRKCZ (human) (Q05513 whole entry, looked up): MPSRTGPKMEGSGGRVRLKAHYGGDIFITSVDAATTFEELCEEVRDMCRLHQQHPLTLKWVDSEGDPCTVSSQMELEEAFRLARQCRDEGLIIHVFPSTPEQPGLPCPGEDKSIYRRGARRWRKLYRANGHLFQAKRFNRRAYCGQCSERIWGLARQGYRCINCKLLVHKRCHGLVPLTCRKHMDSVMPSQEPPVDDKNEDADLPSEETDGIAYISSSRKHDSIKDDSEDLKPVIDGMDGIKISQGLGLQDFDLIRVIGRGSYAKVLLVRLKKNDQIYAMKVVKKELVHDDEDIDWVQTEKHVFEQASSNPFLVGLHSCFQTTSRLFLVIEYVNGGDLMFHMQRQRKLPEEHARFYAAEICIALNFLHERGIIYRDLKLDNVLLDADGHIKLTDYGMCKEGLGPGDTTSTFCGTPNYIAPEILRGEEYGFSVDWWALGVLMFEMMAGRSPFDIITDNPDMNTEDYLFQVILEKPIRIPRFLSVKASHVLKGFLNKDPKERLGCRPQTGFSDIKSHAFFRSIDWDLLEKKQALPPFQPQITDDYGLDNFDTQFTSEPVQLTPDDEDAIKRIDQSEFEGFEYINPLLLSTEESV

PTK6 (human) = PTK6 (human) (UniProt Q13882)
Sequence of PTK6 (human) (Q13882 whole entry, looked up): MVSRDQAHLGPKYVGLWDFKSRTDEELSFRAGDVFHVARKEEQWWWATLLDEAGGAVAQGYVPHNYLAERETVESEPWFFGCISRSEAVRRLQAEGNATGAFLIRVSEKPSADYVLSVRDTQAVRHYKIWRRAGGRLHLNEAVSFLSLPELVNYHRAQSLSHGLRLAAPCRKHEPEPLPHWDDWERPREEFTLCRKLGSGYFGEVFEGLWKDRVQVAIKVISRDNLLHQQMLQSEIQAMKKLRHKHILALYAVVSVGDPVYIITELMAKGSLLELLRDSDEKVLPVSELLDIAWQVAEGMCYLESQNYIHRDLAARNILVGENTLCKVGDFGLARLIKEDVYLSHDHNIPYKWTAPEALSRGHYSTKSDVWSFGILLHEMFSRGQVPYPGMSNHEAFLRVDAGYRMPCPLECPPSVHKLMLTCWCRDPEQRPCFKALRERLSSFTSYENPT

RAF1 (human) = RAF1 (human) (UniProt P04049)
RPS6KA1 KD1 KD2 (human) = RPS6KA1 KD1 KD2 (human) (UniProt Q15418)
RPS6KA2 KD1 KD2 (human) = RPS6KA2 KD1 KD2 (human) (UniProt Q15349)
RPS6KA4 KD2 (human) = RPS6KA4 KD2 (human) (UniProt O75676)
RPS6KB1 (human) = RPS6KB1 (human) (UniProt P23443)
SGK2 (human) = SGK2 (human) (UniProt Q9HBY8)
STK33 (human) = STK33 (human) (UniProt Q9BYT3)
STK4 (human) = STK4 (human) (UniProt Q13043)
SYK (human) = SYK (human) (UniProt P43405)
TAOK3 (human) = TAOK3 (human) (UniProt Q9H2K8)
TSSK1B (human) = TSSK1B (human) (UniProt Q9BXA7)
TXK (human) = TXK (human) (UniProt P42681)
Sequence of TXK (human) (P42681 whole entry, looked up): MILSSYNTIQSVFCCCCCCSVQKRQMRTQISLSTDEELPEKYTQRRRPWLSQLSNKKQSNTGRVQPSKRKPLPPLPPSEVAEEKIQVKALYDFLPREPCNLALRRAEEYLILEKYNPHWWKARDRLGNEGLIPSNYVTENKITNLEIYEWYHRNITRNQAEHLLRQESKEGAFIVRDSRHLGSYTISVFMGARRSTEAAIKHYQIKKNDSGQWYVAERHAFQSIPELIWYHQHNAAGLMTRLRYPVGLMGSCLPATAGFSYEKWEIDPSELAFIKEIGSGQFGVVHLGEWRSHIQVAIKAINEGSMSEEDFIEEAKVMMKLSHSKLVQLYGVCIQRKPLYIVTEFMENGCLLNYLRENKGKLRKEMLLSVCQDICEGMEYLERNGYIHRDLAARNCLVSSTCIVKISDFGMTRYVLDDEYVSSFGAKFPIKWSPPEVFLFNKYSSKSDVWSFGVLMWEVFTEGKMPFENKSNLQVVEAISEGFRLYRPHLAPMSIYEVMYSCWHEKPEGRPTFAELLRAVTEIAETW

Sequence of CAMK2A (human) (Q9UQM7 whole entry, looked up): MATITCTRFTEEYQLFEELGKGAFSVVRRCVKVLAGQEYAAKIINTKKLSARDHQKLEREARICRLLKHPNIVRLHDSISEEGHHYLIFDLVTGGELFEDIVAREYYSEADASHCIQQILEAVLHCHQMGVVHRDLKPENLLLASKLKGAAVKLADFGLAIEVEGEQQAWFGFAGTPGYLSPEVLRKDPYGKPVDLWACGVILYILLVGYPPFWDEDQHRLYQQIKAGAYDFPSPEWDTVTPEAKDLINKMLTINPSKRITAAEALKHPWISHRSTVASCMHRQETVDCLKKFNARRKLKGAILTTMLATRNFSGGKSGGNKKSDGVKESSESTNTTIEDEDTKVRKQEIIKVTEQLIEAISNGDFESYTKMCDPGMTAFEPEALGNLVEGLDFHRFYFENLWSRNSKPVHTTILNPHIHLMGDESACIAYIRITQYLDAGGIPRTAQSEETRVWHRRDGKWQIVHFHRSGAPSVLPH
Sequence of CDK3 CCNE1 (human) (P24864 whole entry, looked up): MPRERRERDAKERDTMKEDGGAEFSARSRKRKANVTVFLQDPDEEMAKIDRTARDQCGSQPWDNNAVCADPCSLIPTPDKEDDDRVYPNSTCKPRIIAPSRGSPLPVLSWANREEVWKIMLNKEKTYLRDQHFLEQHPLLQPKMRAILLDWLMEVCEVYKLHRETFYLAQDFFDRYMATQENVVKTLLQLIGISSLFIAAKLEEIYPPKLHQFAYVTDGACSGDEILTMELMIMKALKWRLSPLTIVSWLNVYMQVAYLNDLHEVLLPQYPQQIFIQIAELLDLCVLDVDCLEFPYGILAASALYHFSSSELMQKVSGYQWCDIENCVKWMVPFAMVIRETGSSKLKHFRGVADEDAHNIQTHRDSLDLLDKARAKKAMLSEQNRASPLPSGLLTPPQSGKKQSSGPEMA
Sequence of CDK3 CCNE1 (human) (Q00526 whole entry, looked up): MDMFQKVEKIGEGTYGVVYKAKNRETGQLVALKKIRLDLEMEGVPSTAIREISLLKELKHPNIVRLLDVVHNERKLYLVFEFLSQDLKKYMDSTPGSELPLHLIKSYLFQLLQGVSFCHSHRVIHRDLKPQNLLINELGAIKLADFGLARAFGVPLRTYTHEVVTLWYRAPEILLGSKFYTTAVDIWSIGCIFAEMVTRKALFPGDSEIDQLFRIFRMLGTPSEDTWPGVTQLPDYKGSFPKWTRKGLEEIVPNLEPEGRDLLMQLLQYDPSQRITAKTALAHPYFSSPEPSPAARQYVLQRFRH

## COc1cc2ncnc(Nc3ccc(Oc4ccccc4)cc3)c2cc1OC
BRSK1 (human)
  residual activity: 98.7%
CAMK2A (human)
  residual activity: 102%
CAMK2B (human)
  residual activity: 98.2%
CDK3 CCNE1 (human)
  residual activity: 98.5%
CLK4 (human)
  residual activity: 122%
CSNK1A1 (human)
  residual activity: 98.2%
CSNK1E (human)
  residual activity: 100%
DMPK (human)
  residual activity: 106%
DYRK1B (human)
  residual activity: 97%
ERBB2 (human)
  residual activity: 29.5%
FLT1 (human)
  residual activity: 79.8%
GRK5 (human)
  residual activity: 97.4%
ITK (human)
  residual activity: 93.6%
JAK2 JH1 JH2 (human)
  residual activity: 95.6%
KDR (human)
  residual activity: 92.1%
MAP3K8 (human)
  residual activity: 68.9%
MAP4K5 (human)
  residual activity: 70.6%
MAPK1 (human)
  residual activity: 99.8%
MST4 (human)
  residual activity: 102%
MUSK (human)
  residual activity: 89.8%
NEK2 (human)
  residual activity: 111%
NUAK1 (human)
  residual activity: 105%
OXSR1 (human)
  residual activity: 97.5%
PAK6 (human)
  residual activity: 109%
PDPK1 (human)
  residual activity: 111%
PIM1 (human)
  residual activity: 102%
PLK3 (human)
  residual activity: 97.1%
PRKCB2 (human)
  residual activity: 92.8%
PRKCZ (human)
  residual activity: 100%
PTK6 (human)
  residual activity: -0.0383%
RAF1 (human)
  residual activity: 88.9%
RPS6KA1 KD1 KD2 (human)
  residual activity: 97.6%
RPS6KA2 KD1 KD2 (human)
  residual activity: 98%
RPS6KA4 KD2 (human)
  residual activity: 94.4%
RPS6KB1 (human)
  residual activity: 108%
SGK2 (human)
  residual activity: 113%
STK33 (human)
  residual activity: 96.3%
STK4 (human)
  residual activity: 107%
SYK (human)
  residual activity: 98.6%
TAOK3 (human)
  residual activity: 102%
TSSK1B (human)
  residual activity: 104%
TXK (human)
  residual activity: 78%

## O=C1NC(=O)c2c1c1c3ccccc3[nH]c1n1cncc21
BRSK1 (human)
  residual activity: 22.5%
CAMK2A (human)
  residual activity: 55.1%
CAMK2B (human)
  residual activity: 58.2%
CDK3 CCNE1 (human)
  residual activity: 76.7%
CLK4 (human)
  residual activity: 99%
CSNK1A1 (human)
  residual activity: 51.6%
CSNK1E (human)
  residual activity: 18.9%
DMPK (human)
  residual activity: 101%
DYRK1B (human)
  residual activity: 65.9%
ERBB2 (human)
  residual activity: 109%
FLT1 (human)
  residual activity: 58%
GRK5 (human)
  residual activity: 94.4%
ITK (human)
  residual activity: 71.4%
JAK2 JH1 JH2 (human)
  residual activity: 117%
KDR (human)
  residual activity: 66.6%
MAP3K8 (human)
  residual activity: 100%
MAP4K5 (human)
  residual activity: 13.5%
MAPK1 (human)
  residual activity: 125%
MST4 (human)
  residual activity: 69.4%
MUSK (human)
  residual activity: 54.4%
NEK2 (human)
  residual activity: 87.5%
NUAK1 (human)
  residual activity: 12.1%
OXSR1 (human)
  residual activity: 97.2%
PAK6 (human)
  residual activity: 85.5%
PDPK1 (human)
  residual activity: 89%
PIM1 (human)
  residual activity: 1.43%
PLK3 (human)
  residual activity: 48.2%
PRKCB2 (human)
  residual activity: 94.7%
PRKCZ (human)
  residual activity: 84.8%
PTK6 (human)
  residual activity: 89%
RAF1 (human)
  residual activity: 108%
RPS6KA1 KD1 KD2 (human)
  residual activity: 31.1%
RPS6KA2 KD1 KD2 (human)
  residual activity: 32.7%
RPS6KA4 KD2 (human)
  residual activity: 61.3%
RPS6KB1 (human)
  residual activity: 70.6%
SGK2 (human)
  residual activity: 75.3%
STK33 (human)
  residual activity: 52.3%
STK4 (human)
  residual activity: 42.7%
SYK (human)
  residual activity: 84.9%
TAOK3 (human)
  residual activity: 66.9%
TSSK1B (human)
  residual activity: 84.4%
TXK (human)
  residual activity: 76.4%

## Cc1nc(-c2ccccc2)c(-c2ccncc2)o1
BRSK1 (human)
  residual activity: 99.8%
CAMK2A (human)
  residual activity: 104%
CAMK2B (human)
  residual activity: 95.9%
CDK3 CCNE1 (human)
  residual activity: 98.1%
CLK4 (human)
  residual activity: 121%
CSNK1A1 (human)
  residual activity: 86.4%
CSNK1E (human)
  residual activity: 69.9%
DMPK (human)
  residual activity: 103%
DYRK1B (human)
  residual activity: 98.9%
ERBB2 (human)
  residual activity: 105%
FLT1 (human)
  residual activity: 79.4%
GRK5 (human)
  residual activity: 104%
ITK (human)
  residual activity: 97.1%
JAK2 JH1 JH2 (human)
  residual activity: 98.4%
KDR (human)
  residual activity: 85.2%
MAP3K8 (human)
  residual activity: 89.9%
MAP4K5 (human)
  residual activity: 96.2%
MAPK1 (human)
  residual activity: 90.3%
MST4 (human)
  residual activity: 114%
MUSK (human)
  residual activity: 95.9%
NEK2 (human)
  residual activity: 116%
NUAK1 (human)
  residual activity: 100%
OXSR1 (human)
  residual activity: 102%
PAK6 (human)
  residual activity: 103%
PDPK1 (human)
  residual activity: 96.9%
PIM1 (human)
  residual activity: 105%
PLK3 (human)
  residual activity: 95.4%
PRKCB2 (human)
  residual activity: 88.4%
PRKCZ (human)
  residual activity: 103%
PTK6 (human)
  residual activity: 86%
RAF1 (human)
  residual activity: 92.6%
RPS6KA1 KD1 KD2 (human)
  residual activity: 103%
RPS6KA2 KD1 KD2 (human)
  residual activity: 93%
RPS6KA4 KD2 (human)
  residual activity: 93.7%
RPS6KB1 (human)
  residual activity: 92.8%
SGK2 (human)
  residual activity: 105%
STK33 (human)
  residual activity: 99.3%
STK4 (human)
  residual activity: 104%
SYK (human)
  residual activity: 99.1%
TAOK3 (human)
  residual activity: 99%
TSSK1B (human)
  residual activity: 108%
TXK (human)
  residual activity: 99.4%

## CCCCc1c(-c2ccc(OC)cc2)[nH]c2nccnc12
BRSK1 (human)
  residual activity: 89.1%
CAMK2A (human)
  residual activity: 100%
CAMK2B (human)
  residual activity: 97.6%
CDK3 CCNE1 (human)
  residual activity: 83.8%
CLK4 (human)
  residual activity: 73.2%
CSNK1A1 (human)
  residual activity: 92.9%
CSNK1E (human)
  residual activity: 109%
DMPK (human)
  residual activity: 84.3%
DYRK1B (human)
  residual activity: 94.5%
ERBB2 (human)
  residual activity: 96.4%
FLT1 (human)
  residual activity: 103%
GRK5 (human)
  residual activity: 105%
ITK (human)
  residual activity: 99.4%
JAK2 JH1 JH2 (human)
  residual activity: 77.9%
KDR (human)
  residual activity: 88.8%
MAP3K8 (human)
  residual activity: 98.2%
MAP4K5 (human)
  residual activity: 63.8%
MAPK1 (human)
  residual activity: 103%
MST4 (human)
  residual activity: 75.8%
MUSK (human)
  residual activity: 95.4%
NEK2 (human)
  residual activity: 115%
NUAK1 (human)
  residual activity: 25%
OXSR1 (human)
  residual activity: 102%
PAK6 (human)
  residual activity: 96.8%
PDPK1 (human)
  residual activity: 102%
PIM1 (human)
  residual activity: 97%
PLK3 (human)
  residual activity: 91.5%
PRKCB2 (human)
  residual activity: 106%
PRKCZ (human)
  residual activity: 93.9%
PTK6 (human)
  residual activity: 30.4%
RAF1 (human)
  residual activity: 99.9%
RPS6KA1 KD1 KD2 (human)
  residual activity: 89.8%
RPS6KA2 KD1 KD2 (human)
  residual activity: 93%
RPS6KA4 KD2 (human)
  residual activity: 89.4%
RPS6KB1 (human)
  residual activity: 108%
SGK2 (human)
  residual activity: 116%
STK33 (human)
  residual activity: 84.6%
STK4 (human)
  residual activity: 82.2%
SYK (human)
  residual activity: 47.5%
TAOK3 (human)
  residual activity: 103%
TSSK1B (human)
  residual activity: 65.3%
TXK (human)
  residual activity: 72.7%
